Experiments:
rat aorta rings = assay: Relaxation of rat aorta rings; settings: rat thoracic aorta rings, phenylephrine-contracted to 80% of maximum response; cumulative addition; read-out: EC50 (concentration required to evoke a 50% relaxation of the tissue)
Protocol: The activity of the compounds as potassium channel openers can also be measured as relaxation of rat aortas rings according to the following procedure:
A section of rat thoracic aorta between the aortic arch and the diaphragm was dissected out and mounted as ring preparations as described by Taylor P. D. et al, Brit J. Pharmacol, 111, 42-48 (1994).
After a 45 min. equilibration period under a tension of 2 g, the preparations were contracted to achieve 80% of the maximum response using the required concentration of phenylephrine. When the phenylephrine response reached a plateau, potential vasodilatory agents were added cumulatively to the bath in small volumes using half log molar increments at 2 min intervals. Relaxation was expressed at the percentage of the contracted tension. The potency of a compound was expressed as the concentration required to evoke a 50% relaxation of the tissue.
Relaxation of rat aorta rings

RIN 5F cell line = assay: 86Rb+ efflux from a β-cell line (Rb-efflux in rin 5F cells); assay type: cell-based; settings: 1 h at room temperature, Ringer buffer pH 7.1, four parameter logistic curve, read-out: EC50, inhibition of Rb-efflux
Protocol: ^86 Rb^+ efflux from a β-cell line
The RIN 5F cell line was grown in RPMI 1640 with Glutamax I, supplemented with 10% fetal calf serum (from GibcoBRL, Scotland, UK) and maintained in an atmosphere of 5% CO2 /95% air at 37° C. The cells were detached with a Trypsin-EDTA solution (from GibcoBRL, Scotland, UK), resuspended in medium, added 1 mCi/ml ^86 Rb^+ and replated into microtiter plates (96 well cluster 3596, sterile, from Costar Corporation,Massachusetts, U.S.A.) at a density of 50000 cells/well in […], and grown 24 hours before use in assay.
The plates were washed 4 times with Ringer buffer (150 mM NaCl, 10 mM Hepes, 3.0 mM KCl, 1.0 mM CaCl2, 20 mM Sucrose, pH 7.1). Eighty μl Ringer buffer and 1 μl control- or test compound dissolved in DMSO was added. After incubation 1 h at room temperature with a lid, 50 μl of the supernatant was transferred to PicoPlates (Packard Instrument Company, Connecticut, U.S.A.) and 100 μl MicroScint40 (Packard Instrument Company, Connecticut, U.S.A.) added. The plates were counted in TopCount (Packard Instrument Company, Connecticut, U.S.A.) for 1 min/well at the ^32 P program. […]

| EC50 (rat aorta rings) [µM] | EC50 (RIN 5F cell line) [µM] | Compound |
| --- | --- | --- |
| 1.2 | 2.7 | CC(C)C(C)NC1=NS(=O)(=O)c2sc(Cl)cc2N1 (centres unmarked) [Compound 1, 6-Chloro-3-(1,2-dimethylpropyl)amino-4H-thieno[3,2-e]-1,2,4-thiadiazine 1,1-dioxide] |
| 15 |  | CCNC1=NS(=O)(=O)c2sc(Cl)cc2N1 [Compound 2, 6-Chloro-3-ethylamino-4H-thieno[3,2-e]-1,2,4-thiadiazine 1,1-dioxide] |
| 6.1 | 5.9 | C[C@H](CO)NC1=NS(=O)(=O)c2sc(Cl)cc2N1 [Compound 16, (R)-6-Chloro-3-(2-hydroxy-1-methylethyl)amino-4H-thieno[3,2-e]-1,2,4-thiadiazine 1,1-dioxide] |
